According to patent publication US12227520B2 (priority 2019, dated 2025):
Read-outs that look alike come from different tables or passages of the source.

What was measured:
[1] = Cytotoxicity assay in MT-4 cells; assay type: cell-based, human; details: human, uninfected MT-4 cells, 5 days incubation; read-out: CC50
Description: Each plate contained up to 8 test compounds, with negative (No Drug Control) and 5 μM AZT positive controls. MT-4 cells were pre-infected with 10 μL of either RPMI (mock-infected) or a fresh 1:250 dilution of HIV-1 IIIB concentrated virus stock. Infected and uninfected MT-4 cells were further diluted in complete RPMI media and added to each plate using a Micro Flow dispenser. After 5 days incubation in a humidified and temperature controlled incubator (37° C.), Cell Titer Glo (Promega) was added to the assay plates and chemiluminescence read using an Envision plate-reader. […] Assays were performed as above except uninfected MT-4 cells were added to each well containing test compound. In addition, 10 μM puromycin was added to the last column of each assay plate to assess a base level of cytotoxicity.

HIV-1 (IIIB) = assay: Antiviral assay in MT-4 cells (HIV MT-4 antiviral assay); assay type: cell-based; details: Human immunodeficiency virus 1, IIIB, MT4, 120 h, HIV-1 (IIIB) in MT-4 cells, 5 days incubation; read-out: EC50
Description: Compounds were tested in a high-throughput 384-well assay format for their ability to inhibit the replication of HIV-1 (IIIB) in MT-4 cells. Compounds were serially diluted (1:3) in DMSO on 384-well polypropylene plates and further diluted 200-fold into complete RPMI media (10% FBS, 1% P/S) using the Biotek Micro Flow and Labcyte ECHO acoustic dispenser. Each plate contained up to 8 test compounds, with negative (No Drug Control) and 5 μM AZT positive controls. MT-4 cells were pre-infected with 10 μL of either RPMI (mock-infected) or a fresh 1:250 dilution of HIV-1 IIIB concentrated virus stock. Infected and uninfected MT-4 cells were further diluted in complete RPMI media and added to each plate using a Micro Flow dispenser. After 5 days incubation in a humidified and temperature controlled incubator (37° C.), Cell Titer Glo (Promega) was added to the assay plates and chemiluminescence read using an Envision plate-reader.

pLai RLuc reporter virus = assay: microbe, parasite or virus in culture; assay type: cell-based, HIV; details: Human immunodeficiency virus 1, 72 h
Description: To quantify the amount of protein binding to human serum, compounds were serially diluted (1:3) in DMSO and acoustically transferred onto 384-well assay plates via a Labcyte ECHO robot. Each plate contained up to 8 test compounds, including negative and positive controls, (DMSO, 5 μM AZT respectively). Assay plates were prepared in duplicate, and tested in either CCM (cell culture media) or HS/CCM (human serum/cell culture media). MT-4 cells were first pre-infected with pLai RLuc reporter virus for 2 h at 37° C., then further diluted in either CCM (RPMI media, 10% FBS, 1% P/S) or HS/CCM (RPMI media, 10% FBS, 50% HS, 1% P/S), and subsequently added to each plate using a Biotek Micro Flow dispenser. After a 72-h incubation in a humidified and temperature controlled incubator (37° C.), Renilla Glo (Promega) was added to all assay plates and chemiluminescence read using an Envision plate-reader. […] To determine the amount of protein binding, EC50 fold shifts (or EC50 shifts) were calculated by dividing EC50 (HS/CCM)/EC50 (CCM).

Compound	EC50 (HIV-1 (IIIB))	CC50 at 5 days [1]	EC50 (pLai RLuc reporter virus; read-out: Antiviral Serum Shift RLuc 50% HS, HS/CCM (RPMI media, 10% FBS, 50% HS, 1% P/S), 72-h incubation)	EC50 (pLai RLuc reporter virus; read-out: Antiviral Serum Shift RLuc CCM, CCM (RPMI media, 10% FBS, 1% P/S), 72-h incubation)
CO[C@@H]1CCN2C[C@H](C1)n1cc(C(=O)NCc3c(F)cc(F)cc3F)c(=O)c(O)c1C2=O [Example 103-1, (5R,7S)-12-hydroxy-5-methoxy-1,11-dioxo-N-(2,4,6-trifluorobenzyl)-1,4,5,6,7,11-hexahydro-3H-2,7-methanopyrido[1,2-a][1,4]diazonine-10-carboxamide]	8.97 nM	> 50000 nM	–	–
O=C(NCc1ccc(Cl)cc1Cl)c1cn2c(c(O)c1=O)C(=O)N1CCCC[C@H]2C1 [Example 153, (7S)—N-(2,4-dichlorobenzyl)-12-hydroxy-1,11-dioxo-1,4,5,6,7,11-hexahydro-3H-2,7-methanopyrido[1,2-a][1,4]diazonine-10-carboxamide]	29.8 nM	5610 nM	–	–
O=C(NCc1c(F)cc(F)cc1F)c1cn2c(c(O)c1=O)C(=O)N1CC2CCc2sccc21 (stereo in doubt) [Example 104-2, (11S)-6-hydroxy-5,7-dioxo-N-(2,4,6-trifluorobenzyl)-5,7,12,13-tetrahydro-11H-4,11-methanopyrido[1,2-a]thieno[3,2-e][1,4]diazonine-8-carboxamide]	35.3 nM	14000 nM	–	–
O=C(NCc1ccc(F)cc1F)c1cn2c(c(O)c1=O)C(=O)N1C(=O)C2CCc2ccccc21 (stereo not drawn) [Example 27, N-(2,4-difluorobenzyl)-7-hydroxy-6,8,15-trioxo-6,8,13,14-tetrahydro-12H-5,12-methanobenzo[e]pyrido[1,2-a][1,4]diazonine-9-carboxamide]	> 100 nM	10900 nM	–	–
O=C(NCc1c(F)cc(F)cc1F)c1cn2c(c(O)c1=O)C(=O)N1C[C@H]2CCc2ccc(F)cc21 [Example 86-1, (12R)-3-fluoro-7-hydroxy-6,8-dioxo-N-(2,4,6-trifluorobenzyl)-6,8,13,14-tetrahydro-12H-5,12-methanobenzo[e]pyrido[1,2-a][1,4]diazonine-9-carboxamide]	27 nM	> 30300 nM	–	–
O=C(NCc1c(F)cc(F)cc1F)c1cn2c(c(O)c1=O)C(=O)N1C[C@H]2CCc2c(Cl)cccc21 [Example 45-2, (12R)-1-chloro-7-hydroxy-6,8-dioxo-N-(2,4,6-trifluorobenzyl)-6,8,13,14-tetrahydro-12H-5,12-methanobenzo[e]pyrido[1,2-a][1,4]diazonine-9-carboxamide]	30.3 nM	8890 nM	–	–
CO[C@H]1CCN2C[C@H](C1)n1cc(C(=O)NCc3c(F)cc(F)cc3F)c(=O)c(O)c1C2=O [Example 103-2, (5S,7S)-12-hydroxy-5-methoxy-1,11-dioxo-N-(2,4,6-trifluorobenzyl)-1,4,5,6,7,11-hexahydro-3H-2,7-methanopyrido[1,2-a][1,4]diazonine-10-carboxamide]	9.2 nM	> 50000 nM	–	–
C[C@@]1(O)CCN2C[C@H](C1)n1cc(C(=O)NCc3c(F)cc(F)cc3F)c(=O)c(O)c1C2=O [Example 107-2, (5R,7S)-5,12-dihydroxy-5-methyl-1,11-dioxo-N-(2,4,6-trifluorobenzyl)-1,4,5,6,7,11-hexahydro-3H-2,7-methanopyrido[1,2-a][1,4]diazonine-10-carboxamide]	12.1 nM	> 50000 nM	–	–
C[C@@]1(F)CC[C@H]2CN(C1)C(=O)c1c(O)c(=O)c(C(=O)NCc3c(F)cc(F)cc3F)cn12 [Example 132-1, (4R,7S)-4-fluoro-12-hydroxy-4-methyl-1,11-dioxo-N-(2,4,6-trifluorobenzyl)-1,4,5,6,7,11-hexahydro-3H-2,7-methanopyrido[1,2-a][1,4]diazonine-10-carboxamide]	8.83 nM	> 50000 nM	–	–
C[C@]1(O)CCN2C[C@H](C1)n1cc(C(=O)NCc3c(F)cc(F)cc3F)c(=O)c(O)c1C2=O [Example 107-1, (5S,7S)-5,12-dihydroxy-5-methyl-1,11-dioxo-N-(2,4,6-trifluorobenzyl)-1,4,5,6,7,11-hexahydro-3H-2,7-methanopyrido[1,2-a][1,4]diazonine-10-carboxamide]	15.1 nM	> 50000 nM	–	–
O=C(NCc1ccc(F)cc1F)c1cn2c(c(O)c1=O)C(=O)N1CCc3cc(F)c(F)cc3[C@@H]2C1 (single isomer, unassigned) [Example 111-2]	56.9 nM	9940 nM	–	–
O=C(NCc1ccc(F)cc1F)c1cn2c(c(O)c1=O)C(=O)N1CCOC[C@@H]2C1 [Example 28, (7S)—N-(2,4-difluorobenzyl)-12-hydroxy-1,11-dioxo-1,3,4,6,7,11-hexahydro-2,7-methanopyrido[1,2-d][1,4,7]oxadiazonine-10-carboxamide]	13.5 nM	> 50000 nM	–	–
O=C(NCc1c(F)cc(F)cc1F)c1cn2c(c(O)c1=O)C(=O)N1CC=C(F)C[C@H]2C1 [Example 133, (7S)-5-fluoro-12-hydroxy-1,11-dioxo-N-(2,4,6-trifluorobenzyl)-1,6,7,11-tetrahydro-3H-2,7-methanopyrido[1,2-a][1,4]diazonine-10-carboxamide]	–	–	1.66 nM	0.533 nM

Second part, led by results:

EC50 (HIV-1 (IIIB))	Compound	CC50 at 5 days [1]	EC50 (pLai RLuc reporter virus; read-out: Antiviral Serum Shift RLuc 50% HS, HS/CCM (RPMI media, 10% FBS, 50% HS, 1% P/S), 72-h incubation)	EC50 (pLai RLuc reporter virus; read-out: Antiviral Serum Shift RLuc CCM, CCM (RPMI media, 10% FBS, 1% P/S), 72-h incubation)
2.85 nM	O=C(NCc1ccc(F)c(Cl)c1F)c1cn2c(c(O)c1=O)C(=O)N1C[C@@H]2CCCc2ccccc21 [Example 97-1, (6S)—N-(3-chloro-2,4-difluorobenzyl)-1-hydroxy-2,15-dioxo-2,6,7,8,9,15-hexahydro-6,14-methanobenzo[e]pyrido[1,2-a][1,4]diazecine-3-carboxamide]	6060 nM	–	–
4.1 nM	O=C(NCc1ccc(F)cc1F)c1cn2c(c(O)c1=O)C(=O)N1CCCC(O)C2C1 (stereo not drawn) [Example 12, N-(2,4-difluorobenzyl)-6,12-dihydroxy-1,11-dioxo-1,4,5,6,7,11-hexahydro-3H-2,7-methanopyrido[1,2-a][1,4]diazonine-10-carboxamide]	> 50000 nM	–	–
6.4 nM	O=C(NCc1ccc(F)cc1F)c1cn2c(c(O)c1=O)C(=O)N1C[C@H]2CCC(F)(F)C1 [Example 4-1, (7R)—N-(2,4-difluorobenzyl)-4,4-difluoro-12-hydroxy-1,11-dioxo-1,4,5,6,7,11-hexahydro-3H-2,7-methanopyrido[1,2-a][1,4]diazonine-10-carboxamide]	23300 nM	–	–
1.3 nM	O=C(NCc1ccc(F)cc1F)c1cn2c(c(O)c1=O)C(=O)N1CCCC(F)C2C1 (stereo not drawn) [Example 13, N-(2,4-difluorobenzyl)-6-fluoro-12-hydroxy-1,11-dioxo-1,4,5,6,7,11-hexahydro-3H-2,7-methanopyrido[1,2-a][1,4]diazonine-10-carboxamide]	17200 nM	–	–
2.79 nM	CC1CCN2C[C@H](C1)n1cc(C(=O)NCc3c(F)cc(F)cc3F)c(=O)c(O)c1C2=O (stereo partly drawn) [Example 124, (7S)-12-hydroxy-5-methyl-1,11-dioxo-N-(2,4,6-trifluorobenzyl)-1,4,5,6,7,11-hexahydro-3H-2,7-methanopyrido[1,2-a][1,4]diazonine-10-carboxamide]	15400 nM	–	–
1.74 nM	Cn1ncc2c1C[C@H]1CN(C2)C(=O)c2c(O)c(=O)c(C(=O)NCc3c(F)cc(F)cc3F)cn21 [Example 87-2, (12S)-7-hydroxy-1-methyl-6,8-dioxo-N-(2,4,6-trifluorobenzyl)-1,4,6,8,12,13-hexahydro-5,12-methanopyrazolo[4,3-f]pyrido[1,2-a][1,4]diazonine-9-carboxamide]	> 50000 nM	–	–
5.85 nM	Cn1ncc2c1CC[C@H]1CN2C(=O)c2c(O)c(=O)c(C(=O)NCc3c(F)cc(F)cc3F)cn21 [Example 85-2, (11S)-6-hydroxy-1-methyl-5,7-dioxo-N-(2,4,6-trifluorobenzyl)-1,5,7,11,12,13-hexahydro-4,11-methanopyrazolo[4,3-e]pyrido[1,2-a][1,4]diazonine-8-carboxamide]	> 49300 nM	–	–
7 nM	O=C(NCc1ccc(F)cc1F)c1cn2c(c(O)c1=O)C(=O)N1CCOC[C@H]2C1 [Example 29, (7R)—N-(2,4-difluorobenzyl)-12-hydroxy-1,11-dioxo-1,3,4,6,7,11-hexahydro-2,7-methanopyrido[1,2-d][1,4,7]oxadiazonine-10-carboxamide]	> 50000 nM	–	–
